Assay results taken from patent US12440529B2, “Topical Croton lechleri compositions and their use in the treatment of a bacterial colonization or primary or secondary bacterial infection of an underlying skin disorder” (ALPHYN BIOLOGICS, INC., priority 2020, dated 2025).
Converted amounts (≈) assume the structure as drawn. Where two headings read alike, the source gives them in different places.

Tests used:
[1] = tested on: MRSA strains (Mupirocin-resistant and Mupirocin-susceptible); assay: In vitro MIC/MBC assay (2-fold microdilution), S. aureus strain panel; format: cell-based, Staphylococcus aureus; conditions: for MIC: Staphylococcus aureus
Procedure: (§1) AB-101 was tested against an extensive variety of bacterial strains, including Mupirocin-resistant MRSA, Mupirocin-resistant MSSA, Mupirocin-susceptible MSSA, Mupirocin-susceptible MRSA, and other skin-related pathogens.
(§2) Measures included the minimum inhibitory concentration (MIC) which is the lowest concentration of AB-101 that prevents visible growth of the bacterium or pathogen, and minimum bactericidal concentration (MBC) which is the lowest concentration of an antibacterial agent required to kill a bacterium.
(§3) AB-101 Lots 01, 02 and a purified extract of taspine for MIC are compared. […] Taspine may have additional synergistic benefits to be included in the whole extract in the final product for the effective treatment of a bacterial colonization or primary or secondary bacterial infection of an underlying skin disorder.
as §3, with “taspine for MBC are compared.” for “taspine for MIC are compared.”, “treatment of bacterial colonization” for “treatment of a bacterial colonization”
(§4) Tables 26 and 27 show an assay whose setup is same as what was used for screening S. aureus and P. aeruginosa (i.e. 2-fold microdilution). The 20 strains of S. pyogenes assayed were selected from the two rounds of antibiotic screening to identify Erythromycin and Tetracycline resistant strains. […] For this feasibility study, AB-101 Lot 1 and Lot 2 was used. P. aeruginosa ATCC 27853 was tested as a positive control for AB-101 activity.

[2] = tested on: MSSA strains (Mupirocin-resistant and Mupirocin-susceptible; QC ATCC 29213); assay: as above; format: cell-based, Staphylococcus aureus
Procedure: as §1, §2, §3
as §3, with “taspine for MBC are compared.” for “taspine for MIC are compared.”, “treatment of bacterial colonization” for “treatment of a bacterial colonization”
as §4

cells = conditions: Chen, Planta Med. 60 (1994), cited from earlier work; for effect on cell proliferation: compounds obtained through extraction
[3] = tested on: S. pyogenes (Erythromycin and Tetracycline resistant strains); assay: MIC/MBC assay (2-fold microdilution, CAMHB with […] laked horse blood); format: cell-based; conditions: Streptococcus pyogenes, read-out: MIC
Procedure: as §4

[4] = Staphylococcus aureus, strain CDC 461, MupirocinS, MSSA
[5] = Staphylococcus aureus, strain CDC 461; MupirocinS, MSSA

## COc1cccc(OC)c1C(=O)N[C@@H]1C(=O)N2[C@@H]1SC(C)(C)[C@@H]2C(=O)O [Methicillin]
[1]; strain 1674607, MupirocinR
  MIC: > 64 mg/L
[1]; strain 1674611, MupirocinR
  MIC: 64 mg/L
[1]; strain CDC 218, MupirocinR
  MIC: > 64 mg/L
[1]; strain CDC 224, MupirocinR
  MIC: > 64 mg/L
[1]; strain CDC 227, MupirocinS
  MIC: 64 mg/L
[1]; strain CDC 228, MupirocinR
  MIC: 64 mg/L
[1]; strain CDC 480, MupirocinS
  MIC: 32 to 64 mg/L
[1]; strain CDC 481, MupirocinS
  MIC: 16 to 32 mg/L
[1]; strain CDC 482, MupirocinS
  MIC: 8 to 32 mg/L
[1]; strain CDC 483, MupirocinS
  MIC: 64 mg/L
[2]; Staphylococcus aureus, strain 1674606, MupirocinR, MSSA
  MIC: 2 to 8 mg/L
[2]; Staphylococcus aureus, strain 1674606; MupirocinR, MSSA
  MIC: 2 to 8 mg/L
[2]; Staphylococcus aureus, strain 1674608, MupirocinR, MSSA
  MIC: 2 to 4 mg/L
[2]; Staphylococcus aureus, strain 1674608; MupirocinR, MSSA
  MIC: 2 to 4 mg/L
[2]; Staphylococcus aureus, strain ATCC 29213, QC control
  MIC: 1 to 2 mg/L
[2]; Staphylococcus aureus, strain ATCC 29213; QC control
  MIC: 1 to 2 mg/L
[2]; [4]
  MIC: 4 to 8 mg/L
[2]; [5]
  MIC: 4 to 8 mg/L
[2]; Staphylococcus aureus, strain CDC 462, MupirocinS, MSSA
  MIC: 8 mg/L
[2]; Staphylococcus aureus, strain CDC 462; MupirocinS, MSSA
  MIC: 8 mg/L
[2]; Staphylococcus aureus, strain CDC 463, MupirocinS, MSSA
  MIC: 8 to 16 mg/L
[2]; Staphylococcus aureus, strain CDC 463; MupirocinS, MSSA
  MIC: 8 to 16 mg/L
[2]; Staphylococcus aureus, strain CDC 464, MupirocinS, MSSA
  MIC: 2 mg/L
[2]; Staphylococcus aureus, strain CDC 464; MupirocinS, MSSA
  MIC: 2 mg/L
[2]; Staphylococcus aureus, strain CDC 484, MupirocinS, MSSA
  MIC: 2 mg/L
[2]; Staphylococcus aureus, strain CDC 484; MupirocinS, MSSA
  MIC: 2 mg/L
[2]; Staphylococcus aureus, strain CDC 485, MupirocinS, MSSA
  MIC: 2 to 4 mg/L
[2]; Staphylococcus aureus, strain CDC 485; MupirocinS, MSSA
  MIC: 2 to 4 mg/L

## Oc1cc(O)c2c(c1)O[C@H](c1ccc(O)c(O)c1)[C@@H](O)C2 [Catechin, catechin]
cells
  effect on cell proliferation: little effect

## epicatechin
cells
  effect on cell proliferation: little effect

## C/C(=C\C(=O)OCCCCCCCCC(=O)O)C[C@@H]1OC[C@H](C[C@@H]2O[C@H]2[C@@H](C)[C@H](C)O)[C@@H](O)[C@H]1O [Mupirocin]
[2]; [4]
  MIC: 0.25 to 1 mg/L
[2]; [5]
  MIC: 0.25 to 1 mg/L
[3]; S. pyogenes strain 1744264
  MIC: 0.25 mg/L (≈ 0.499 µM)
[3]; S. pyogenes strain 1744265
  MIC: 0.5 mg/L (≈ 0.999 µM)
[3]; S. pyogenes strain 1744271
  MIC: 0.5 mg/L (≈ 0.999 µM)
[3]; S. pyogenes strain 1744272
  MIC: 0.25 mg/L (≈ 0.499 µM)
[3]; S. pyogenes strain 1744275
  MIC: ≤ 0.125 mg/L
[3]; S. pyogenes strain 1744277
  MIC: ≤ 0.125 mg/L
[3]; S. pyogenes strain 1744285
  MIC: ≤ 0.125 mg/L
[3]; S. pyogenes strain 2065754
  MIC: ≤ 0.125 mg/L
[3]; S. pyogenes strain 2065755
  MIC: ≤ 0.125 mg/L
[3]; S. pyogenes strain 2065756
  MIC: ≤ 0.125 mg/L
[3]; S. pyogenes strain 2065757
  MIC: ≤ 0.125 mg/L
[3]; S. pyogenes strain 2065759
  MIC: ≤ 0.125 mg/L
[3]; S. pyogenes strain 2065760
  MIC: ≤ 0.125 mg/L
[3]; S. pyogenes strain 2065761
  MIC: ≤ 0.125 mg/L
[3]; S. pyogenes strain 2065762
  MIC: ≤ 0.125 mg/L
[3]; S. pyogenes strain 2065763
  MIC: ≤ 0.125 mg/L
[3]; S. pyogenes strain 2065765
  MIC: ≤ 0.125 mg/L
[3]; S. pyogenes strain 20658748
  MIC: ≤ 0.125 mg/L
[3]; S. pyogenes strain 20658749
  MIC: ≤ 0.125 mg/L
[3]; S. pyogenes strain 20658750
  MIC: ≤ 0.125 mg/L

## CN(C)[C@@H]1C(O)=C(C(N)=O)C(=O)[C@@]2(O)C(O)=C3C(=O)c4c(O)cccc4[C@@](C)(O)[C@H]3C[C@@H]12 [Tetracycline]
[3]; S. pyogenes strain 1744264
  MIC: 0.25 mg/L (≈ 0.563 µM)
[3]; S. pyogenes strain 1744265
  MIC: 8 mg/L (≈ 18 µM)
[3]; S. pyogenes strain 1744271
  MIC: 16 mg/L (≈ 36 µM)
[3]; S. pyogenes strain 1744272
  MIC: 8 mg/L (≈ 18 µM)
[3]; S. pyogenes strain 1744275
  MIC: 0.25 mg/L (≈ 0.563 µM)
[3]; S. pyogenes strain 1744277
  MIC: 0.25 mg/L (≈ 0.563 µM)
[3]; S. pyogenes strain 1744285
  MIC: > 16 mg/L
[3]; S. pyogenes strain 2065754
  MIC: 16 mg/L (≈ 36 µM)
[3]; S. pyogenes strain 2065755
  MIC: > 16 mg/L
[3]; S. pyogenes strain 2065756
  MIC: > 16 mg/L
[3]; S. pyogenes strain 2065757
  MIC: 16 mg/L (≈ 36 µM)
[3]; S. pyogenes strain 2065760
  MIC: > 16 mg/L
[3]; S. pyogenes strain 2065762
  MIC: > 16 mg/L
[3]; S. pyogenes strain 2065765
  MIC: 2 to 4 mg/L (≈ 4.5 to 9 µM)
[3]; S. pyogenes strain 20658748
  MIC: 16 mg/L (≈ 36 µM)
[3]; S. pyogenes strain 20658749
  MIC: 16 mg/L (≈ 36 µM)
[3]; S. pyogenes strain 20658750
  MIC: > 16 mg/L

## COc1ccc2c(=O)oc3c(OC)cc(CCN(C)C)c4c(=O)oc1c2c34 [taspine]
[1]
  activity by MBC: does not have activity
[1]; highest taspine concentration tested 10 μg/mL (50% relative to AB-101)
  activity by MIC: does not have activity
[2]; MSSA
  activity by MBC: does not have activity
[2]; MSSA; highest taspine concentration tested 10 μg/mL (50% relative to AB-101)
  activity by MIC: does not have activity
cells; Ecuadorian sap
  healing effects: little healing effects
